Reference: patent US9445597B2, “Pesticidal compositions and related methods” (DOW AGROSCIENCES LLC, priority 2013, dated 2016)
Where two headings read alike, the source gives them in different places.

Key:
[1] = test system: Green Peach Aphid (Myzus persicae) (GPA) (MYZUPE); assay: Bioassay for Green Peach Aphid (GPA), foliar spray on cabbage seedlings; assay type: in vivo; settings: 72 h, read-out: % Control (or Mortality) rating, GPA
Experimental: Example A: Bioassay for Green Peach Aphid (Myzus persicae) (GPA) (MYZUPE).
Cabbage seedlings grown in 3-inch pots, with 2-3 small (3-5 cm) true leaves, were used as test substrate. The seedlings were infested with 20-50 GPA (wingless adult and nymph stages) one day prior to chemical application. Four pots with individual seedlings were used for each treatment. Test compounds (2 mg) were dissolved in 2 mL of acetone/methanol (1:1) solvent, forming stock solutions of 1000 ppm test compound. The stock solutions were diluted 5× with 0.025% Tween 20 in H2O to obtain the solution at 200 ppm test compound. A hand-held aspirator-type sprayer was used for spraying a solution to both sides of […] leaves until runoff. Reference plants (solvent check) were sprayed with the diluent only containing 20% by volume of acetone/methanol (1:1) solvent. Treated plants were held in a holding room for three days at approximately 25° C. and ambient relative humidity (RH) prior to grading. Evaluation was conducted by counting the number of live aphids per plant under a microscope. Percent control was measured by using Abbott's correction formula (W. S. Abbott, “A Method of Computing the Effectiveness of an Insecticide” J. Econ. Entomol. 18 (1925), pp. 265-267) as follows. Corrected % Control=100*(X−Y)/X • where • X=No. of live aphids on solvent check plants and • Y=No. of live aphids on treated plants
(§1) Biological Data for Green Peach Aphid (GPA) (MYZUPE) and Sweetpotato Whitefly-crawler (WF) (BEMITA)” (see table section).

[2] = test system: Sweetpotato Whitefly-crawler (WF) (Bemisia tabaci) (BEMITA); assay: Insecticidal test for Sweetpotato Whitefly-crawler (WF) in foliar spray assay on cotton plants; assay type: in vivo; settings: 216 h, read-out: % Control (or Mortality) rating, WF
Experimental: Example B: Insecticidal test for Sweetpotato Whitefly-crawler (WF) (Bemisia tabaci) (BEMITA) in foliar spray assay.
Cotton plants (Gossypium hirsutum) grown in 3-inch pots, with 1 small (4-5 cm) true leaves, were used as test substrate. The plants were infested with 200-400 whitefly eggs 4-5 days prior to chemical application. Four pots with individual plants were used for each treatment. Test compounds (2 mg) were dissolved in 1 mL of acetone solvent, forming stock solutions of 2000 ppm test compound. The stock solutions were diluted 10× with 0.025% Tween 20 in H2O (diluents) to obtain the solution at 200 ppm test compound. A hand-held aspirator-type sprayer was used for spraying a solution to both sides of cotton leaves until runoff. Reference plants (solvent check) were sprayed with the diluent only containing 10% by volume of acetone solvent. Treated plants were held in a holding room for 9 days at approximately 25° C. and ambient relative humidity (RH) prior to grading. Evaluation was conducted by counting the number of live 3-4 nymph stage per plant under a microscope. Percent control was measured by using Abbott's correction formula (W. S. Abbott, “A Method of Computing the Effectiveness of an Insecticide” J. Econ. Entomol. 18 (1925), pp. 265-267) as follows. Corrected % Control=100*(X−Y)/X • where • X=No. of live nymphs on solvent check plants and • Y=No. of live nymphs on treated plants.
as §1

[3] = 200 ppm foliar spray, cabbage seedlings, graded after three days, Abbott corrected % control
[4] = 200 ppm foliar spray, cotton plants, graded after 9 days, Abbott corrected % control

Compound	mortality at 200 ppm ([1]; foliar)	mortality at 200 ppm ([2]; foliar)	mortality at 200 ppm [1, 3]	mortality at 200 ppm [2, 4]
Cc1nc(-c2cc(F)c[n+]([O-])c2)sc1N(C)C(=O)OC(C)(C)C [CA1, 3-(5-((tert-Butoxycarbonyl)(methyl)amino)-4-methylthiazol-2-yl)-5-fluoropyridine 1-oxide]	80 to 100%	0 to 80%	–	–
CSCCC(=O)Nc1sc(-c2cccnc2)nc1Cl [Compound C3, N-(4-chloro-2-(pyridin-3-yl)thiazol-5-yl)-3-(methylthio)propanamide]	–	–	80 to 100%	0 to 80%
CC(CS(C)(=O)=O)C(=O)N(C)c1sc(-c2ccc[n+]([O-])c2)nc1Cl (centres unmarked) [Compound F1, 3-(4-Chloro-5-(N,2-dimethyl-3-(methylsulfonyl)propanamido)thiazol-2yl) pyridine 1-oxide]	–	–	80 to 100%	0 to 80%
CS(=O)(=O)CCC(=O)Nc1sc(-c2ccc[n+]([O-])c2)nc1Cl [Compound F2]	–	–	80 to 100%	0 to 80%
CCN(C(=O)CCS(C)(=O)=O)c1sc(-c2ccc[n+]([O-])c2)nc1Cl [Compound F3, 3-(4-chloro-5-(N-ethyl-3-(methylsulfonyl)propanamido)thiazol-2-yl)pyridine 1-oxide]	–	–	80 to 100%	80 to 100%
CCN(C(=O)CCSCCC(F)(F)F)c1sc(-c2ccc[n+]([O-])c2)nc1Cl [Compound P1, 3-(4-chloro-5-(N-ethyl-3-((3,3,3-trifluoropropyl)thio)propanamido)thiazol-2-yl)pyridine 1-oxide]	–	–	80 to 100%	80 to 100%
CCN(C(=O)CC[S+]([O-])CCC(F)(F)F)c1sc(-c2ccc[n+]([O-])c2)nc1Cl (centres unmarked) [Compound P2, 3-(4-Chloro-5-(N-ethyl-3-((3,3,3-trifluoropropyl)sulfinyl)propanamido)thiazol-2-yl)pyridine 1-oxide]	–	–	80 to 100%	80 to 100%
CCN(C(=O)CCS(=O)(=O)CCC(F)(F)F)c1sc(-c2ccc[n+]([O-])c2)nc1Cl [Compound P3, 3-(4-Chloro-5-(N-ethyl-3-((3,3,3-trifluoropropyl)sulfonyl)propanamido)thiazol-2-yl)pyridine 1-oxide]	–	–	80 to 100%	80 to 100%
CCN(C(=O)CCSC)c1sc(-c2ccc[n+]([O-])c2)nc1Cl [Compound P4, 3-(4-Chloro-5-(N-ethyl-3-(methylthio)propanamido)thiazol-2-yl) pyridine 1-oxide]	–	–	80 to 100%	80 to 100%
CCN(C(=O)CC[S+](C)[O-])c1sc(-c2ccc[n+]([O-])c2)nc1Cl (centres unmarked) [Compound P5, 3-(4-Chloro-5-(N-ethyl-3-(methylsulfinyl)propanamido)thiazol-2-yl)pyridine 1-oxide]	–	–	80 to 100%	80 to 100%
CCN(C(=O)C(C)CSC)c1sc(-c2ccc[n+]([O-])c2)nc1Cl (centres unmarked) [Compound P6, 3-(4-Chloro-5-(N-ethyl-2-methyl-3-(methylthio)propanamido)thiazol-2-yl)pyridine 1-oxide]	–	–	80 to 100%	80 to 100%
CCN(C(=O)C(C)C[S+](C)[O-])c1sc(-c2ccc[n+]([O-])c2)nc1Cl (centres unmarked) [Compound P7, 3-(4-Chloro-5-(N-ethyl-2-methyl-3-(methylsulfinyl)propanamido)thiazol-2-yl)pyridine 1-oxide]	–	–	80 to 100%	80 to 100%
CCN(C(=O)C(C)CS(C)(=O)=O)c1sc(-c2ccc[n+]([O-])c2)nc1Cl (centres unmarked) [Compound P8, 3-(4-Chloro-5-(N-ethyl-2-methyl-3-(methylsulfonyl)propanamido)thiazol-2-yl)pyridine 1-oxide]	–	–	80 to 100%	80 to 100%
CSCCC(=O)N(C)c1sc(-c2cc(F)c[n+]([O-])c2)nc1C [FA1, 3-Fluoro-5-(4-methyl-5-(N-methyl-3-(methylthio)propanamido)thiazol-2-yl)pyridine 1-oxide]	–	–	80 to 100%	80 to 100%
Cc1nc(-c2cc(F)c[n+]([O-])c2)sc1N(C)C(=O)CCS(C)(=O)=O [FA2, 3-Fluoro-5-(4-methyl-5-(N-methyl-3-(methylsulfonyl)propanamido)thiazol-2-yl)pyridine 1-oxide]	–	–	80 to 100%	80 to 100%
Cc1nc(-c2cc(F)c[n+]([O-])c2)sc1N(C)C(=O)CC[S+](C)[O-] (centres unmarked) [FA3, 3-Fluoro-5-(4-methyl-5-(N-methyl-3-(methylsulfinyl)propanamido)thiazol-2-yl)pyridine 1-oxide]	–	–	80 to 100%	80 to 100%
